Results: patent US20080194640A1, “Optically Active Tetrahydronaphthalene Derivative” (priority 2005, published 2008)
In brackets after ≈: the same amount, converted by molar mass.

Experiments:
[1] = Evaluation of biological availability (bioavailability) in rat; format: in vivo; settings: for AUC: rat, fasted female SD rats, plasma
Protocol: Free base•Form-I crystal was administered to female SD rats fasted from the day before the experiment and the plasma concentration was measured under the following conditions. As a result, the areas under blood concentration-time curve (AUC) of the drug after intravenous administration and oral administration are as shown in Table 1.
• Dosing formulation: 0.5 mg/ml in aqueous physiological saline. • Dose: 1 mg/2 ml/kg • Administration method: bolus administration from the tail vein Collection of blood samples: About 0.1-0.2 mL of blood was taken from the cervical vein at 3 min, 10 min, 30 min, 1 hr, 2 hr, 4 hr and 6 hr after administration. The blood was centrifuged, and the plasma was separated.
• Dosing formulation: 2 mg/ml suspension adjusted by gradually adding aqueous hydroxypropylmethylcellulose solution to the compound of the present invention thoroughly triturated in an agate mortar. • Dose: 10 mg/5 ml/kg • Administration method: Forcible administration into the stomach • Collection of blood samples: About 0.1-0.2 mL of blood was taken from the cervical vein at 30 min, 1 hr, 2 hr, 4 hr, 6 hr, 8 hr and 24 hr after administration. The blood was centrifuged, and the plasma was separated.
The plasma concentration of the administered compound was measured by LC-MS/MS.
LC conditions • Column: Capcellpak C18 UG-120 (2.0φ mm×50 mm, S-5 μm, Shiseido Co., Ltd.) • Mobile phase: acetonitrile • Flow rate: 0.25 mL/min • Column temperature: room temperature • Auto sampler temperature set to: 25° C. • Gradient setting: • 0 min→0.6 min:25%→25% • 0.6 min→3.6 min:25%→75% • 3.6 min→6 min:75%→75% • 6 min→6.1 min:75%→25% • 6.1 min→9.5 min:25%→25% • MS/MS conditions • Ionization method: ESI • Capillary temperature: 350° C. • Sheath gas pressure: 80 psi • Spray voltage: 4.5 kV.
The plasma concentration of the racemate was measured by a similar method, and the biological availability was calculated and found to be 20%.

[2] = Solubility test (Japanese Pharmacopoeia Solution 2); format: physicochemical; settings: pH 6.8, aqueous buffer, thermodynamic from solid; Japanese Pharmacopoeia Solution 2, 37° C., shaken 30 min; read-out: solubility after 30 min
Protocol: An adequate amount of a sample was taken, and a test solution (The Japanese Pharmacopoeia Solution 2) was added to each to a concentration of about 1 mg/ml. The sample was dispersed by ultrasonication for 2 min, shaken at 37° C. for 30 min, and the solution was filtered through DISMIC13HP ([…]). The filtrate in the early stage (3 ml) was removed, the subsequent filtrate (500 μl) was precisely measured, and the dilution solution (water/acetonitrile/trifluoroacetic acid mixture=500:500:1, 500 μl) was accurately added to give a sample solution. The sample solution and the standard solution prepared in Experimental Example 5 were subjected to the measurement under the similar HPLC conditions as in Experimental Example 5.

[3] = Dissolution test (JP Dissolution Test Method 2, paddle method); format: physicochemical; settings: JP second fluid 900 ml, paddle 50 rpm, 37° C., about 10 mg based on free form
Protocol: The compounds obtained in Examples 22, 24 and 25, free base•Form-I crystal, and the racemate of the compound of Example 3 were subjected to a dissolution test, and the dissolution rate was compared. According to this test method, the amount of dissolution relative to the content of each compound in the test solution is expressed in the dissolution rate (%), which was measured over time.
For the method of adding each compound, the compound (about 10 mg based on free form) was precisely weighed and directly added to a vessel. As the test solution, The Japanese Pharmacopoeia second fluid (900 ml) was used, and the test was performed according to The Japanese Pharmacopoeia Dissolution Test Method 2 (Paddle Method) at 50 rpm. The test temperature was 37° C. After the start of the test, solution for dissolution (10 ml) was taken at suitable times, and a test solution (10 ml) heated to 37° C. was soon carefully added for compensation. The collected solution for dissolution was passed through a filter (DISMIC 13HP PTFE (0.45 μm); Toyo Roshi Kaisha). The filtrate in the early stage (5 ml) was removed, the subsequent filtrate (500 μl) was precisely measured, and the dilution solution (water/acetonitrile/trifluoroacetic acid mixture=500:500:1, 500 μl) was accurately added to give a sample solution.
Separately, about 10 mg of the free base•Form-I crystal was precisely weighed, and a dilution solution (water/acetonitrile/trifluoroacetic acid mixture=500:500:1) was added to 50 ml sharp. This solution (2.5 ml) was precisely measured, and a dilution solution (water/acetonitrile/trifluoroacetic acid mixture=500:500:1) was added to 50 ml sharp. This was used as the standard solution of free base•Form-I crystal (10 μg/ml). The sample solution and the standard solution were measured under the HPLC conditions shown below, the peak areas AT and AS of the free base•Form-I crystal in each solution were measured, and the dissolution rate was determined by the following formula.
The nth dissolution rate (%) of free base•Form-I crystal=Wn/W100%×100 • W1: the first dissolution amount (mg) of free base•Form-I crystal
=(900×AT1)×WS/AS/1000 • Wn: the nth (n>1) dissolution amount (mg) of free base•Form-I crystal
={900×ATn+10×(AT1+AT2 . . . +ATn−1)}×WS/AS/1000 • W100%: cast amount (mg) of drug substance • Ws: collected amount (mg) of free base•Form-I crystal standard product • As: peak area of free base•Form-I crystal in standard solution • AT1: peak area of free base•Form-I crystal in sample solution by the first sampling • ATn: peak area of free base•Form-I crystal in sample solution by the nth sampling. • For racemate, the dissolution rate was calculated based on the total value of S form and R form. […]

Which biological availability ([1]; female SD rats, oral 10 mg/kg vs intravenous 1 mg/kg) does the source give for `CCn1cc(CN(C(=O)C2CCCc3c(O)cccc32)c2ccc(C(C)C)nc2)cn1` (racemic) [racemate of the compound of Example 3, N-[(1-ethyl-1H-pyrazol-4-yl)methyl]-5-hydroxy-N-(6-isopropylpyridin-3-yl)-1,2,3,4-tetrahydronaphthalene-1-carboxamide, reference compound] here?
The biological availability was 20%.

What about the AUC ([1]; intravenous administration 1 mg/kg) of the same compound?
Its AUC is 289 ng·h/mL.

What about the AUC ([1]; oral administration 10 mg/kg) of the same compound?
The AUC was 572 ng·h/mL.

And the solubility at 30 min [2]?
The solubility at 30 min was 31 µg/mL (≈ 74.1 µM).

What about the “dissolution rate (comparison)” value [3] of the same compound?
Its value is “slowest”.
